pIC50: −log10 of the molar value. “Also recorded” adds a separate entry of the source.
Tests used:
slc26a3 = target: T1, slc26a3 (Mus musculus, UniProt Q9WVC8); assay: slc26a3-mediated Cl-/HCO3- exchange, BCECF cytoplasmic pH in slc26a3-expressing FRT cells; type: cell-based, murine; conditions: increase in cytoplasmic pH, read-out: IC50 for inhibition of slc26a3-mediated Cl-/HCO3- exchange
T1 construct: host or cells: Fischer rat thyroid (FRT) cells expressing YFP, clonal line FRT-YFP-slc26a3
T1 sequence (Q9WVC8 1-757): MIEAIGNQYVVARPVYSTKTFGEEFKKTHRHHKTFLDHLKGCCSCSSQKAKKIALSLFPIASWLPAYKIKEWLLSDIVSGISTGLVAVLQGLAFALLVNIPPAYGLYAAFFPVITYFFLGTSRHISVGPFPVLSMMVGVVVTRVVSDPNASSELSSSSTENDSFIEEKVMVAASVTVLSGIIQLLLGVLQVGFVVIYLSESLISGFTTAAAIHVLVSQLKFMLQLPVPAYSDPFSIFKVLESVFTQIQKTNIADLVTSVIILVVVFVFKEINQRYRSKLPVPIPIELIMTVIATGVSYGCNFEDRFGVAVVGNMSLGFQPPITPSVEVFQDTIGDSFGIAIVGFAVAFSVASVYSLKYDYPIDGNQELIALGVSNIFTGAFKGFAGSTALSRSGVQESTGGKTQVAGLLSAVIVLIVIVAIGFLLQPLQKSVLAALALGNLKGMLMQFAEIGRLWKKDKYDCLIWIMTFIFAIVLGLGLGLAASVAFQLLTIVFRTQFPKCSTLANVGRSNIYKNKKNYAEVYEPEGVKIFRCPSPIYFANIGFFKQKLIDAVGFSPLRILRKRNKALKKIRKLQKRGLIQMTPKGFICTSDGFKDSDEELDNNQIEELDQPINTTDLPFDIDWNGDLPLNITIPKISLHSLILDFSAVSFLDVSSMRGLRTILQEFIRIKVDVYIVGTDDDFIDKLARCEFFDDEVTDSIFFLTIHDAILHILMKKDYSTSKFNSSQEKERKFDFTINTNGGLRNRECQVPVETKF
Experimental: Concentration-dependence measurements for inhibition of slc26a3-mediated exchange of Cl^- and HCO3^-, the physiologically relevant activity of slc26a3, was measured using slc26a3-expressing FRT cells labeled with BCECF as a cytoplasmic pH sensor. Labeled cells were initially incubated in a Cl^--containing HCO3^- buffered solution, and HCO3^- influx / Cl^- efflux with cytoplasmic alkalinization was produced by addition of a gluconate-containing HCO3^- buffered solution. […] Concentration-dependence measurements for inhibition of slc26a3-mediated Cl^-/SCN^- exchange gave an IC50 of ~0.3 µM (FIG. 4B).
(§1) YFP-based assays of CFTR, pendrin and TMEM16A were as described. HEK cells transfected to express YFP and SLC26A3, slc26a6 or slc26a9 were functionally assayed using a Cl^-/I^- exchange protocol. Assays of Cl^-/HCO3^- exchange were done using BCECF as an intracellular pH indicator as described for pendrin. Short-circuit current (ISC) measurements in well-differentiated HBE cell cultures were done using techniques known in the art.

CFTR = target: T2, CFTR (Homo sapiens, UniProt P13569); assay: Selectivity: CFTR (forskolin stimulated) YFP assay; type: cell-based; conditions: 10 µM
T2 construct: expressed in transfected cells; host or cells: FRT cells expressing YFP and CFTR
T2 sequence (P13569 whole entry, species assumed): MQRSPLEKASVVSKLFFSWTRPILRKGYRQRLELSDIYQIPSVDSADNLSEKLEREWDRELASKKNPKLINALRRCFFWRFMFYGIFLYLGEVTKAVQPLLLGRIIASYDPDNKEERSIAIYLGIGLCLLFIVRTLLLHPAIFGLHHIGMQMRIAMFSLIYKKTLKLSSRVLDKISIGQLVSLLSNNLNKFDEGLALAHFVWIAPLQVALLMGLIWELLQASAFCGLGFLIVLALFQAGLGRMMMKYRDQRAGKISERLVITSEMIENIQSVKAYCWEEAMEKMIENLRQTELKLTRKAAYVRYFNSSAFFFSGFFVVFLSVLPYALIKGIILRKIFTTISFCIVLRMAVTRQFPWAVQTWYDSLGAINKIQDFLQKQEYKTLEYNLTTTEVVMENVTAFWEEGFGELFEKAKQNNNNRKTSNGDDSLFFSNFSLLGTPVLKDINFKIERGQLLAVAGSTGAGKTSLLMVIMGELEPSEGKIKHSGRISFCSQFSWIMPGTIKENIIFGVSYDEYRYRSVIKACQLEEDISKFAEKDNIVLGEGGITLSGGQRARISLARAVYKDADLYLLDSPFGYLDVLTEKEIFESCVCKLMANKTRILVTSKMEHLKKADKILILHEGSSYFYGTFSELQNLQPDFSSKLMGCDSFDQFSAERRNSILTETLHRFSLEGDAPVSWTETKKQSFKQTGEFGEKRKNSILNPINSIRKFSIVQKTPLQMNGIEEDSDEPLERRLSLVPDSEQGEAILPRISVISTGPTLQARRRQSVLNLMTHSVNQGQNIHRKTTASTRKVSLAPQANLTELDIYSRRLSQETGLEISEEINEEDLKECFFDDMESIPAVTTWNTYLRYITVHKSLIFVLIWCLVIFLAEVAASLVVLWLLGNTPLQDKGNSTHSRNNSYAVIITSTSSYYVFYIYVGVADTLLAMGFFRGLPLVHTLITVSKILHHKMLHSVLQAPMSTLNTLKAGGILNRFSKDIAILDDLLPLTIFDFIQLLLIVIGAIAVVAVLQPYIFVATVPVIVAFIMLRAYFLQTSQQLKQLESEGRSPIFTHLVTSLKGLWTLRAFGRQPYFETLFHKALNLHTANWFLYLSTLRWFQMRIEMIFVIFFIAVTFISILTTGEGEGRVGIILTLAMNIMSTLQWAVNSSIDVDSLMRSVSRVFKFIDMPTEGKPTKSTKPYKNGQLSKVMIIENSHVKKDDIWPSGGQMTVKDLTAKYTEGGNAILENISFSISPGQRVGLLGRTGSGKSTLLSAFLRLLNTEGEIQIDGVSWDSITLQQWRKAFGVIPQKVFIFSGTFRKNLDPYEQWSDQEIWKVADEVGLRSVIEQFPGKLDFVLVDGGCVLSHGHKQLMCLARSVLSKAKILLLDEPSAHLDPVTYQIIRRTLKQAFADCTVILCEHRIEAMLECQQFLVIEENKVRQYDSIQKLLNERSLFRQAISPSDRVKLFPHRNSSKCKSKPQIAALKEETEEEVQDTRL
Source text: To investigate Compound A1 selectivity, transport assays were done on a panel of SLC26-family homologs, and other relevant epithelial ion transporters and channels. […] In separate studies, to investigate possible action of Compound A1 on multiple ion transporters and channels in a human epithelium, human bronchial epithelial (HBE) cells were studied by short-circuit current, with successive additions of amiloride (to block the epithelial sodium channel ENaC), forskolin, CFTRinh-172 (to block CFTR), and ATP (to activate the Ca^2+-activated chloride channel, CaCC) (FIG. 5C).
as §1, with “Short-circuit current (ISC) measurements in well-differentiated HBE cell cultures were done using techniques known in the art.” left out
HEK293 cells transfected with pIRES-YFP-slc26a9 were plated in 96-well black-walled, clear-bottom tissue culture plates (Corning Life Sciences, Tewksbury, MA) after coating with FNC Coating Mix (AthenaES, Baltimore, MD). […] Assays of slc26a9-mediated anion exchange were done by initially recording YFP fluorescence prior to addition of 100 µL of NaI-substituted PBS to test wells, with the initial rate of Cl^-/I^- exchange deduced from fluorescence intensity by single exponential regression. […]

Cc1c(CC(=O)O)c(=O)oc2c(C)c(OCc3cccc(Br)c3)ccc12 [Compound A1]
pIC50 (slc26a3): ~7.00
effect on activity of CFTR (CFTR): did not alter the activity; also recorded: differences not significant
